Columns and labels:
[1] = test system: PDL-1; assay: PDL-1 Western blot, M21 melanoma cells attached to αvβ3 ligands; assay type: cell-based, human; details: immobilized epitope vs uncoated wells; 15 minute incubation; FIG. 15
Protocol: FIGS. 14A and 14B are blots of integrin αvβ3 expressing melanoma cells (M21 and CLL-49) and FIG. 14C is a blot depicting that endothelial cells (HUVEC) were allowed to attach to well coated with either a non-αvβ3 binding ligand (native collagen-IV) or an αvβ3 binding ligand (denatured collagen-IV). Whole cell lysates were prepared and the relative levels of PDL-1 or loading control β-actin were assessed by Western blot.
Integrin αvβ3 expressing melanoma cells (M21) were seeded on control uncoated wells or wells immobilized with the XL313 cryptic collagen epitope (RGDKGE (SEQ ID NO. 1)). Following a 15 minute incubation cell lysates were prepared. The relative levels of PDL-1 or loading control β-actin were assessed by Western blot.
Integrin αvβ3 expressing melanoma cells M21 (FIG. 14A) and CCL-49 (FIG. 14B) and endothelial cells (HUVEC) (FIG. 14C) were attached to wells coated with either a non-αvβ3 binding ligand (native collagen-IV) or an αvβ3 binding ligand (denatured collagen-IV). Whole cell lysates were prepared and the relative levels of PDL-1 or β-actin loading control were assessed.
Integrin αvβ3 expressing melanoma cells (M21) were seeded onto control uncoated wells or wells immobilized with the XL313 cryptic collagen epitope (RGDKGE (SEQ ID NO. 1)) (FIG. 15). Following an incubation period, cell lysates were prepared and relative levels of PDL-1 were assessed.

[2] = test system: chick embryos; assay: Circulating Mab XL313 reactive epitope in chick embryo serum, solid-phase ELISA; assay type: in vivo; details: serum collected three days after FGF-2 stimulation, FIG. 5A
Protocol: Due to the differential expression and bio-distribution of the RGDKGE (SEQ ID NO. 1) epitope in angiogenic CAM tissues and its expression in macrophage-conditioned medium, it was determined whether a soluble circulating form of this RGDKGE (SEQ ID NO. 1) epitope could be generated. To examine this possibility, chick embryos were either un-treated or stimulated with FGF-2 and serum, and collected three days later. […] In contrast, a (P<0.05) 2-fold increase was detected in the levels of circulating XL313 epitope following FGF-2 stimulation. These findings indicated the differential release of a soluble form of this RGDKGE (SEQ ID NO. 1) containing collagen epitope.

[3] = test system: chick chorioallantoic membrane (CAM); assay: Macrophage infiltration of FGF-2 stimulated CAMs (KUL1 staining); assay type: in vivo; details: FGF-2 stimulation, no cortisone acetate; FIG. 3D
Protocol: The chick chorioallantoic membrane (CAM) assays were carried out with some modifications (19). For all experiments CAMs of 10-day-old chick embryos obtained from Charles River (North Franklin, CT) were separated from the shell membrane. Filter discs either non-treated (inflammation assays) pretreated (angiogenesis assays) with cortisone acetate (3.0 mg/ml) containing RPMI only or FGF-2 (40 ng). CAMs were either non-treated or treated topically with Mab XL313, XL166 or a non-specific control antibody (10 μg/embryo every 24 h for three consecutive treatments). For peptide induction experiments, CAMs were stimulated with 100 ng/ml of the RGD peptides (P-1, P-2, P-C) in the presence or absence of the P38MAPK inhibitor, SB202190 (10 μM). At the end of the incubation period the embryos were sacrificed and the CAM tissues were analyzed. Angiogenesis was quantified by counting the number of angiogenic branching blood vessels within the area of the filter disc. The angiogenic index was determined by subtracting the mean number of blood vessel branch points from untreated CAMs from each experimental condition. […]
CAMs examined for accumulation of granulation tissue were harvested, fixed in 4% PFA and paraffin embedded and sectioned (4 μm) and stained with Giemsa. CAM tissues analyzed via immunofluorescence were harvested, embedded with OCT, snap frozen and sectioned (4 μM). […]

[4] = test system: chick chorioallantoic membrane (CAM); assay: Chick CAM inflammation assay, induction by RGD collagen peptides; assay type: in vivo; details: FGF-2, absence of cortisone acetate; FIG. 5D
Protocol: (§1) The chick chorioallantoic membrane (CAM) assays were carried out with some modifications (19). For all experiments CAMs of 10-day-old chick embryos obtained from Charles River (North Franklin, CT) were separated from the shell membrane. Filter discs either non-treated (inflammation assays) pretreated (angiogenesis assays) with cortisone acetate (3.0 mg/ml) containing RPMI only or FGF-2 (40 ng). CAMs were either non-treated or treated topically with Mab XL313, XL166 or a non-specific control antibody (10 μg/embryo every 24 h for three consecutive treatments). […] At the end of the incubation period the embryos were sacrificed and the CAM tissues were analyzed. Angiogenesis was quantified by counting the number of angiogenic branching blood vessels within the area of the filter disc. The angiogenic index was determined by subtracting the mean number of blood vessel branch points from untreated CAMs from each experimental condition. Eight to twelve embryos were used per condition and experiments were repeated at least three times.
The effects of the soluble RGD containing collagen peptides on inflammation were examined.

[5] = test system: chick chorioallantoic membrane (CAM); assay: Chick CAM inflammation assay, FGF-2 induced, antibody treatment; assay type: in vivo; details: FGF-2 stimulation in the absence of cortisone acetate; FIG. 3E
Protocol: as §1, with “Eight to twelve embryos were used per condition and experiments were repeated at least three times.” left out
The chick CAM has been routinely used to assess inflammation and granulation tissue formation, which are largely dependent on infiltration of chick heterophils (the avian equivalent of neutrophils), macrophages and activated fibroblasts (36,37). To study the potential differential biological impact of RGD epitopes, FGF-2 induced inflammation was examined by carrying out similar experiments in the absence of cortisone acetate and quantifying CAM thickening. […]

Substance	levels of PDL-1 protein in M21 melanoma cells on immobilized epitope [1]	increase in levels of circulating XL313 epitope in serum [2]	macrophage infiltration of the CAMs, enhancement as compared to control [3]	CAMs exhibiting extensive tissue thickening [4]	CAMs showing robust formation of thick granulation tissue [5]
RGDKGE (immobilized on wells) [XL313 epitope, αvβ3 ligand]	enhanced levels of PDL-1 protein	–	–	–	–
FGF-2: Fibroblast growth factor-2 from R&D Systems, stimulus of CAM angiogenesis and inflammation	–	2 fold	over 2 fold	55%-60%	approximately 50%

Reference: patent publication US11998600B2, “Enhancing the therapeutic activity of an immune checkpoint inhibitor” (MaineHealth, priority 2015, dated 2024)
